We go through four compounds from PMC9572083, “Hybrids of 1,4-Quinone with Quinoline Derivatives: Synthesis, Biological Activity, and Molecular Docking with DT-Diaphorase (NQO1)” (Molecules, 2022).

The target of series [1] is T1, NQO1 (DT-diaphorase, EC 1.6.5.5, human recombinant) (Homo sapiens, UniProt P15559).
T1 construct: purchased Sigma-Aldrich
The experiment in a line: NQO1 substrate NADPH recycling enzymatic assay. The format is biochemical. The following applies: compound 10 µmol/L, pH 7.4, 25 °C, absorbance at 340 nm. The method in brief: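 Human recombinant NQO1 (1.4 µg/mL) in 50 mmol/L potassium phosphate, pH 7.4, was tested with compounds at 10 µmol/L. NADPH was dispensed to start the reaction, and A340 was read every 10 s for 5 min at 25 °C. Initial slopes were expressed as µmol NADPH/µmol NQO1/min against compound-free reactions.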

The subject of another series is Colo-829 cells. The series can be described thus: Cytotoxic activity, WST-1 assay, melanoma Colo-829. The class given is cell-based, human. Conditions: for SI (IC50 HFF-1/IC50 cancer line) Colo-829: HFF-1 vs Colo-829; for IC50: Homo sapiens, melanoma Colo-829, 72 h, WST-1. The method in brief:
(§1)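 Cells seeded at 5 × 10^4/well in DMEM with 10% FCS at 37 °C, 5% CO2, and exposed 72 h to compounds at 1–100 µg/mL. WST-1 formazan read at 450 nm. IC50 is the µM concentration giving 50% growth inhibition, with Neg. meaning above 30 µM; mean of ≥3 independent triplicate experiments.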

Another series concerns SK-OV-3 cells. The experiment in a line: Cytotoxic activity, WST-1 assay, ovarian cancer SK-OV-3. The class given is cell-based, human. The following applies: for SI (IC50 HFF-1/IC50 cancer line) SK-OV-3: HFF-1 vs SK-OV-3; for IC50: Homo sapiens, ovarian cancer SK-OV-3, 72 h, WST-1. The method in brief:
as §1
(In general: Formazan colour is commonly taken as a measure of viable cells.)

The subject of a further series is MDA-MB-231 cells. The series can be described thus: Cytotoxic activity, WST-1 assay, breast cancer MDA-MB-231. The class given is cell-based, human. The following applies: for SI (IC50 HFF-1/IC50 cancer line) MDA-MB-231: HFF-1 vs MDA-MB-231; for IC50: Homo sapiens, breast cancer MDA-MB-231, 72 h, WST-1. The method in brief:
as §1

In another series the test system is T47D cells. The series can be described thus: Cytotoxic activity, WST-1 assay, breast cancer T47D. The format is cell-based, human. Conditions: for SI (IC50 HFF-1/IC50 cancer line) T47D: HFF-1 vs T47D; for IC50: Homo sapiens, breast cancer T47D, 72 h, WST-1. The method in brief: as §1
The next series deals with MCF-7 cells. The series can be described thus: Cytotoxic activity, WST-1 assay, breast cancer MCF-7. The class given is cell-based, human. The following applies: for SI (IC50 HFF-1/IC50 cancer line) MCF-7: HFF-1 vs MCF-7; for IC50: Homo sapiens, MCF7, breast cancer MCF-7, 72 h, WST-1. The method in brief:
as §1

A further series has as its system A549 cells. The experiment in a line: Cytotoxic activity, WST-1 assay, lung cancer A549. Conditions: for SI (IC50 HFF-1/IC50 cancer line) A549: HFF-1 vs A549; for IC50: Homo sapiens, lung cancer A549, 72 h, WST-1. The format is cell-based, human. The method in brief: as §1
A further series relates to HFF-1 cells. The experiment in a line: Cytotoxic activity, WST-1 assay, normal fibroblasts HFF-1. The format is cell-based. Conditions: Homo sapiens, normal fibroblasts HFF-1, 72 h. The method in brief:
as §1

A further series relates to H3 histone gene. The series can be described thus: Transcriptional activity of H3 histone gene in A549 cells (RT-QPCR). The class given is cell-based, human. The following applies: 24 h, concentration equal to half of IC50. The procedure:
(§2) The mechanism of anticancer activity was determined by detection of transcriptional activity of the genes encoding a proliferation marker (H3 histone), cell cycle regulators (p53 and p21), and the mitochondrial apoptosis pathway (BCL-2 and BAX) (Figure 3a–d). The derivatives 11b, 12b, 13b, and 14b were selected for this study.
(§3) Transcriptional activity of genes (TP53, CDKN1A, BAX, and BCL-2) was rated by real-time RT-QPCR using Opticon™ DNA Engine system (MJ Research, Watertown, NY, USA) and QuantTect® SYBR® Green RT-PCR Kit (Qiagen, Hilden, Germany). Cultured cells were incubated with tested compounds for 24 h. RNA was extracted using Quick-RNA™ MiniPrep kit columns (Zymo Research, Irvine, CA, USA). The extracted RNA was assessed qualitatively and quantitatively. The amount and purity of the total RNA in extracts were determined spectrophotometrically (HP8452A apparatus, Hewlett Packard, Waldbronn, Germany).

The test system of the next series is TP53. The series can be described thus: Transcriptional activity of TP53 gene in A549 cells (RT-QPCR). The format is cell-based, human. Conditions: 24 h, concentration equal to half of IC50. The procedure:
as §2, §3

Another series has as its system CDKN1A. The series can be described thus: Transcriptional activity of CDKN1A gene in A549 cells (RT-QPCR). Conditions: 24 h, concentration equal to half of IC50. The class given is cell-based, human. As to the method:
as §2, §3

T1 sequence (P15559 whole entry): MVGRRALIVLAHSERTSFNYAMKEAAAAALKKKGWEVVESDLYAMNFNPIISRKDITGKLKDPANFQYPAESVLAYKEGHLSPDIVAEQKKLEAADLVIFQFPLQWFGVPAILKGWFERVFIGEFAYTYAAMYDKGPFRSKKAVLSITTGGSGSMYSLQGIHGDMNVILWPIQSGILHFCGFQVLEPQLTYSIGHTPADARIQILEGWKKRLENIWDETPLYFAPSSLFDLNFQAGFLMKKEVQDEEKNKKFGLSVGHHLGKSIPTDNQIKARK

By IC50 is commonly meant the concentration needed to halve the response being measured. What is called melting point is the temperature of the solid-liquid transition. For `Cc1ccc2cccc(OC3=C(Cl)C(=O)c4ccccc4C3=O)c2n1` [Compound 14b, 2-chloro-3-[(2-methylquinolin-8-yl)oxy]naphthalene-1,4-dione], the melting point lay in the range of 100 to 102 °C. Also, the “NQO1 activity (enzymatic conversion rate)” value (“NQO1 activity” below) in series [1] is reported as 1260 ± 15 µmol NADPH/µmol NQO1/min. Besides, in the series on Colo-829 cells, the “SI (IC50 HFF-1/IC50 cancer line) Colo-829” value came out at 0.74 and 15000 ± 1030 nM corresponded to half-maximal inhibition (IC50). Besides, in the series on SK-OV-3 cells, the “SI (IC50 HFF-1/IC50 cancer line) SK-OV-3” value stood at 0.66 and the IC50 was found to be 16800 ± 590 nM. In the series on MDA-MB-231 cells, the “SI (IC50 HFF-1/IC50 cancer line) MDA-MB-231” value is on record as 0.58 and inhibition was half-maximal at 19200 ± 620 nM (IC50). Further, in the series with T47D cells, the “SI (IC50 HFF-1/IC50 cancer line) T47D” value is 0.50 and the IC50 was 22200 ± 1030 nM. In the series with MCF-7 cells, the “SI (IC50 HFF-1/IC50 cancer line) MCF-7” value came out at 0.68 and the IC50 was 16300 ± 1080 nM. For the same compound, in the series on A549 cells, the “SI (IC50 HFF-1/IC50 cancer line) A549” value came to 5.30 and the IC50 was determined as 2100 ± 290 nM. Besides, in the series on HFF-1 cells, it took 11100 ± 1620 nM to reach half-maximal inhibition (IC50). Further, the “Number of mRNA copies of the histone H3 gene” value in the series with H3 histone gene is listed as “reduce the amount of mRNA copies by half”. Also, the TP53 gene expression result in the series with TP53 is “slight increase”. Besides, the “CDKN1A expression (copies of mRNA)” value in the series on CDKN1A is “slight effect”.

With `Cc1ccc2cccc(OC3=C(Cl)C(=O)c4ccncc4C3=O)c2n1` [Compound 13b, 6-chloro-7-[(2-methylquinolin-8-yl)oxy]isoquinoline-5,8-dione], the melting point was 110 to 112 °C. The “NQO1 activity” value in [1] is on record as 1143 ± 36 µmol NADPH/µmol NQO1/min. Also, in the series with Colo-829 cells, the “SI (IC50 HFF-1/IC50 cancer line) Colo-829” value was determined as 66.77 and half-maximal inhibition (IC50) was put at 390 ± 110 nM. In addition, in the series with SK-OV-3 cells, the “SI (IC50 HFF-1/IC50 cancer line) SK-OV-3” value came out at 53.14 and the 50% inhibitory concentration (IC50) was determined as 490 ± 50 nM. Besides, in the series with MDA-MB-231 cells, the “SI (IC50 HFF-1/IC50 cancer line) MDA-MB-231” value is 236.73 and the half-maximal inhibitory concentration (IC50) stood at 110 ± 10 nM. In the series on T47D cells, the “SI (IC50 HFF-1/IC50 cancer line) T47D” value is recorded as 20.19 and the IC50 is 1290 ± 30 nM. In the series on MCF-7 cells, the “SI (IC50 HFF-1/IC50 cancer line) MCF-7” value was determined as 42.69 and the IC50 was determined as 610 ± 90 nM. In the series on A549 cells, the “SI (IC50 HFF-1/IC50 cancer line) A549” value is 45.68 and the IC50 was 570 ± 20 nM. The same compound returned an IC50 in the series with HFF-1 cells of 26000 ± 1600 nM. Further, the “Number of mRNA copies of the histone H3 gene” value with H3 histone gene was “reduce the amount of mRNA copies by half”. The TP53 gene expression entry in the series on TP53 is reported as “significant increase”. Besides, in the series on CDKN1A, the “CDKN1A expression (copies of mRNA)” value is on record as “highest increase”.

`Cc1ccc2c(n1)C(=O)C(Oc1cccc3ccc(C)nc13)=C(Cl)C2=O` [Compound 12b, 6-chloro-2-methyl-7-[(2-methylquinolin-8-yl)oxy]quinoline-5,8-dione] gave a melting point of 130 to 132 °C. Also, the “NQO1 activity” value in series [1] was determined as 1437 ± 42 µmol NADPH/µmol NQO1/min. In addition, in the series with Colo-829 cells, the “SI (IC50 HFF-1/IC50 cancer line) Colo-829” value was found to be 6.01 and 1690 ± 80 nM corresponded to half-maximal inhibition (IC50). In the series with SK-OV-3 cells, the “SI (IC50 HFF-1/IC50 cancer line) SK-OV-3” value is given as 6.81 and the IC50 came out at 1490 ± 210 nM. In the series with MDA-MB-231 cells, the “SI (IC50 HFF-1/IC50 cancer line) MDA-MB-231” value is 6.46 and the IC50 turned out to be 1570 ± 190 nM. For the same compound, in the series on T47D cells, the “SI (IC50 HFF-1/IC50 cancer line) T47D” value amounted to 5.34 and the IC50 was determined as 1900 ± 230 nM. For the same compound, in the series with MCF-7 cells, the “SI (IC50 HFF-1/IC50 cancer line) MCF-7” value is 5.70 and inhibition was half-maximal at 1780 ± 30 nM (IC50). Further, in the series with A549 cells, the “SI (IC50 HFF-1/IC50 cancer line) A549” value is 7.10 and the IC50 is 1430 ± 60 nM. The compound further came in with an IC50 with HFF-1 cells of 10200 ± 1330 nM. Besides, the TP53 gene expression result in the series on TP53 is on record as “significant increase”.

The compound `Cc1ccc2cccc(OC3=C(Cl)C(=O)c4cccnc4C3=O)c2n1` [Compound 11b, 6-chloro-7-[(2-methylquinolin-8-yl)oxy]quinoline-5,8-dione] came in with a melting point of 110 to 112 °C. For the same compound, the “NQO1 activity” value in series [1] is 1294 ± 51 µmol NADPH/µmol NQO1/min. In the series on Colo-829 cells, the “SI (IC50 HFF-1/IC50 cancer line) Colo-829” value amounted to 13.56 and the IC50 came out at 1920 ± 110 nM. Moreover, in the series on SK-OV-3 cells, the “SI (IC50 HFF-1/IC50 cancer line) SK-OV-3” value came out at 15.40 and the IC50 turned out to be 1690 ± 30 nM. Also, in the series with MDA-MB-231 cells, the “SI (IC50 HFF-1/IC50 cancer line) MDA-MB-231” value is 15.87 and it took 1640 ± 150 nM to reach half-maximal inhibition (IC50). For the same compound, in the series on T47D cells, the “SI (IC50 HFF-1/IC50 cancer line) T47D” value came out at 10.76 and the IC50 stood at 2420 ± 130 nM. In the series on MCF-7 cells, the “SI (IC50 HFF-1/IC50 cancer line) MCF-7” value turned out to be 12.34 and the IC50 was 2110 ± 80 nM. Further, in the series on A549 cells, the “SI (IC50 HFF-1/IC50 cancer line) A549” value came to 14.62 and half-maximal inhibition (IC50) was put at 1780 ± 210 nM. This compound also showed an IC50 in the series with HFF-1 cells of 26100 ± 1020 nM. In the series on TP53, the TP53 gene expression result is “significant increase”.
